From patent US20260027132A1, “FRAGRANCE COMPOSITIONS AND USE THEREOF FOR IMPROVING SLEEP” (TAKASAGO INTERNATIONAL CORPORATION, priority 2018, published 2026)

Each molecule was assayed on panelists (assay: Sleep study with panelists smelling test material at bedtime, Fitbit sleep data versus blank control). Details: vs blank control (no fragrance), 0.06 g neat oil on a blotter, smelled at bedtime, jar left open, one week.
Type: in vivo, human
Protocol: A series of sleep studies were conducted. Each study runs one week with one additional week for blank control sample (no fragrance). The number of panelists in each study ranged from 9 to 15. Panelists received either a set of control jars or a set of jars with test material (0.06 g neat oil on a blotter). The second week the order was reversed such that at the end of each study, each panelist had received both treatments.
Each night, when ready to go to sleep, panelists were instructed to open one of the jars, hold it under their nose, and smell the fragrance while counting slowly to 20, then leave the jar open on the night table while sleeping. Fitbit sleep data were collected at the end of each session of each study and analyzed by ANOVA.

Point of comparison: `CC(=O)/C=C/C1=C(C)CCCC1(C)C` [beta-ionone], “Total light sleep minutes % Increase” value 3%. Against it:
- O=C1CCCC=CCCCCCCCCCC1 [Ambretone, 5-cyclohexadecen-1-one] — higher, 4%
- CC(C)=CCC/C(C)=C/CO [Geraniol, geraniol] — higher, 8%
- CC(C)[C@@H]1CC[C@@H](C)C[C@H]1O [L-menthol] — the same, 3%
- CC(C=O)Cc1ccc(C(C)(C)C)cc1 (stereo not shown) [Lilial, lilial] — higher, 5%
- C=CC(C)(O)CCC=C(C)C (stereo not shown) [Linalool, linalool] — higher, 5%
- CC(C)=CCC/C(C)=C\CO [Nerol, nerol] — higher, 4%
- CC(C)C(=O)OCCOc1ccccc1 [Phenoxyethyl isobutyrate, phenoxyethyl isobutyrate] — higher, 8%
- CC(=O)/C(C)=C/C1C(C)=CCCC1(C)C (stereo not shown) [gamma-methyl ionone] — higher, 12%

Point of comparison: `CC(C=O)Cc1ccc(C(C)C)cc1` (stereo not shown) [Cyclamen aldehyde, cyclamen aldehyde], “Total minutes awake % Decrease” value 7%. Against it:
- CC1(C)CCC[C@]2(C)[C@H]3CCO[C@]3(C)CC[C@@H]12 [Ambroxan, (3aR,5aS,9aS,9bR)-3a,6,6,9a-tetramethyl-2,4,5,5a,7,8,9,9b-octahydro-1H-benzo[e][1]benzofuran] — higher, 8%
- C=CC(C)(CCC=C(C)C)OC(C)=O (stereo not shown) [Linalyl acetate, linalyl acetate] — higher, 10.6%
- O=C1CCCCCCCCCCCC(=O)OCCO1 [Musk T, 1,4-dioxacycloheptadecane-5,17-dione] — higher, 13%
- CC(=O)/C=C/C1=C(C)CCCC1(C)C [beta-ionone] — higher, 12%

Point of comparison: `CC(=O)/C=C/C1=C(C)CCCC1(C)C` [beta-ionone], “Sleep efficiency % Increase” value 2%. Against it:
- CC(C=O)Cc1ccc(C(C)C)cc1 (stereo not shown) [Cyclamen aldehyde, cyclamen aldehyde] — lower, 1.2%
- CC(C)[C@@H]1CC[C@@H](C)C[C@H]1O [L-menthol] — lower, 1%
- CC(C=O)Cc1ccc(C(C)(C)C)cc1 (stereo not shown) [Lilial, lilial] — lower, 1%
- C=CC(C)(CCC=C(C)C)OC(C)=O (stereo not shown) [Linalyl acetate, linalyl acetate] — the same, 2%
- O=C1CCCCCCCCCCCC(=O)OCCO1 [Musk T, 1,4-dioxacycloheptadecane-5,17-dione] — the same, 2%

Point of comparison: `CC/C=C\CCOC(=O)c1ccccc1O` [cis-3-hexenyl salicylate], “Total deep sleep minutes % Increase” value 8%. Against it:
- CC(C=O)Cc1ccc(C(C)C)cc1 (stereo not shown) [Cyclamen aldehyde, cyclamen aldehyde] — lower, 7.4%
- C=CC(C)CCCC(C)(C)O (stereo not shown) [Dihydromyrcenol, dihydromyrcenol] — higher, 37%
- CC(C)=CCC/C(C)=C/CO [Geraniol, geraniol] — higher, 29%
- CC1CCCCCCCCCCCCC(=O)C1 [L-muscone, 3-methylcyclopentadecan-1-one] — higher, 11%
- C=CC(C)(CCC=C(C)C)OC(C)=O (stereo not shown) [Linalyl acetate, linalyl acetate] — higher, 16%
- CC(=O)/C=C/C1C(C)=CCCC1(C)C (stereo not drawn) [alpha-ionone] — higher, 14%

Point of comparison: `CC(C=O)Cc1ccc(C(C)(C)C)cc1` (stereo not shown) [Lilial, lilial], “Total minutes asleep % Increase” value 4%. Against it:
- CC(C=O)Cc1ccc(C(C)C)cc1 (stereo not shown) [Cyclamen aldehyde, cyclamen aldehyde] — the same, 4%
- C=CC(C)CCCC(C)(C)O (stereo not shown) [Dihydromyrcenol, dihydromyrcenol] — higher, 13%
- CC(C)=CCC/C(C)=C/CO [Geraniol, geraniol] — higher, 10%
- CC(C)=CCC/C(C)=C\CO [Nerol, nerol] — the same, 4%
- CC(=O)/C=C/C1C(C)=CCCC1(C)C (stereo not drawn) [alpha-ionone] — higher, 5%

Point of comparison: `COc1cc(C=O)ccc1O` [Vanillin, vanillin], “Total REM sleep minutes % Increase” value 7%. Against it:
- C=CC(C)CCCC(C)(C)O (stereo not shown) [Dihydromyrcenol, dihydromyrcenol] — higher, 10%
- CC(C=O)Cc1ccc(C(C)(C)C)cc1 (stereo not shown) [Lilial, lilial] — lower, 6%
- C=CC(C)(CCC=C(C)C)OC(C)=O (stereo not shown) [Linalyl acetate, linalyl acetate] — higher, 19%
